Tested on: P12-Ichikawa
Experiment: cell viability relative to DMSO control; higher = less cytotoxic
Settings: 48 h
Method in brief: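 Viability was expressed as a per-plate percentage of DMSO wells, with cell-free wells as background. Leukemia cells (NOMO1 or SEM at 500 cells/well, P12-Ichikawa at 1000 cells/well) were adapted for at least four passages in each medium and seeded in 1536-well plates (5 μl). Library compounds in DMSO were pin-dosed over an 11-point threefold series from 47 μM to 0.79 nM, and CellTiter-Glo One luminescence was read after 48 h at 37°C.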

[1] = HPLM + 10% dialyzed FBS, 0.000781 µM
[2] = HPLM + 10% dialyzed FBS, 0.00234 µM
[3] = HPLM + 10% dialyzed FBS, 0.00702 µM
[4] = HPLM + 10% dialyzed FBS, 0.0211 µM
[5] = HPLM + 10% dialyzed FBS, 0.0632 µM
[6] = HPLM + 10% dialyzed FBS, 0.19 µM
[7] = HPLM + 10% dialyzed FBS, 0.569 µM
[8] = HPLM + 10% dialyzed FBS, 1.71 µM
[9] = HPLM + 10% dialyzed FBS, 5.12 µM
[10] = HPLM + 10% dialyzed FBS, 15.4 µM
[11] = HPLM + 10% dialyzed FBS, 46.1 µM
[12] = RPMI 5 mM glucose + 10% FBS, 0.000781 µM
[13] = RPMI 5 mM glucose + 10% FBS, 0.00234 µM
[14] = RPMI 5 mM glucose + 10% FBS, 0.00702 µM
[15] = RPMI 5 mM glucose + 10% FBS, 0.0211 µM
[16] = RPMI 5 mM glucose + 10% FBS, 0.0632 µM
[17] = RPMI 5 mM glucose + 10% FBS, 0.19 µM
[18] = RPMI 5 mM glucose + 10% FBS, 0.569 µM
[19] = RPMI 5 mM glucose + 10% FBS, 1.71 µM
[20] = RPMI 5 mM glucose + 10% FBS, 5.12 µM
[21] = RPMI 5 mM glucose + 10% FBS, 15.4 µM
[22] = RPMI 5 mM glucose + 10% FBS, 46.1 µM
[23] = RPMI 5 mM glucose + 10% dialyzed FBS, 0.000781 µM
[24] = RPMI 5 mM glucose + 10% dialyzed FBS, 0.00234 µM
[25] = RPMI 5 mM glucose + 10% dialyzed FBS, 0.00702 µM
[26] = RPMI 5 mM glucose + 10% dialyzed FBS, 0.0211 µM
[27] = RPMI 5 mM glucose + 10% dialyzed FBS, 0.0632 µM
[28] = RPMI 5 mM glucose + 10% dialyzed FBS, 0.19 µM
[29] = RPMI 5 mM glucose + 10% dialyzed FBS, 0.569 µM
[30] = RPMI 5 mM glucose + 10% dialyzed FBS, 1.71 µM
[31] = RPMI 5 mM glucose + 10% dialyzed FBS, 5.12 µM
[32] = RPMI 5 mM glucose + 10% dialyzed FBS, 15.4 µM
[33] = RPMI 5 mM glucose + 10% dialyzed FBS, 46.1 µM

COC1=CC=CC=C1C2=CC=CC(=C2)C/3=C(O)/C4=CC(=C(Cl)C=C4NC3=O)C#N
cell viability [1]: 98.4%
cell viability [2]: 106%
cell viability [3]: 111%
cell viability [4]: 114%
cell viability [5]: 107%
cell viability [6]: 112%
cell viability [7]: 109%
cell viability [8]: 92.8%
cell viability [9]: 10.2%
cell viability [10]: 6.7%
cell viability [11]: 10.6%
cell viability [12]: 99.3%
cell viability [13]: 110%
cell viability [14]: 107%
cell viability [15]: 116%
cell viability [16]: 123%
cell viability [17]: 115%
cell viability [18]: 114%
cell viability [19]: 106%
cell viability [20]: 64.3%
cell viability [21]: 4.25%
cell viability [22]: 5.71%
cell viability [23]: 95.2%
cell viability [24]: 99.1%
cell viability [25]: 105%
cell viability [26]: 105%
cell viability [27]: 99.6%
cell viability [28]: 101%
cell viability [29]: 110%
cell viability [30]: 94%
cell viability [31]: 45.5%
cell viability [32]: 5.98%
cell viability [33]: 6.01%

NC(=O)c1cnc(N[C@@H]2CCCC[C@@H]2N)nc1Nc1cccc(-n2nccn2)c1
cell viability [1]: 111%
cell viability [2]: 117%
cell viability [3]: 126%
cell viability [4]: 124%
cell viability [5]: 122%
cell viability [6]: 132%
cell viability [7]: 136%
cell viability [8]: 128%
cell viability [9]: 123%
cell viability [10]: 133%
cell viability [11]: 77.6%

CC(=O)N(C)c1cccc(-c2ccnc3c(C(=O)c4cccs4)cnn23)c1
cell viability [1]: 103%
cell viability [2]: 115%
cell viability [3]: 109%
cell viability [4]: 101%
cell viability [5]: 108%
cell viability [6]: 110%
cell viability [7]: 99.8%
cell viability [8]: 120%
cell viability [9]: 103%
cell viability [10]: 99.3%
cell viability [11]: 94.5%
cell viability [12]: 106%
cell viability [13]: 96.8%
cell viability [14]: 88.5%
cell viability [15]: 80.9%
cell viability [16]: 102%
cell viability [17]: 101%
cell viability [18]: 107%
cell viability [19]: 90.5%
cell viability [20]: 95.8%
cell viability [21]: 88.1%
cell viability [22]: 90.2%
cell viability [23]: 105%
cell viability [24]: 98.7%
cell viability [25]: 105%
cell viability [26]: 88%
cell viability [27]: 93.9%
cell viability [28]: 103%
cell viability [29]: 107%
cell viability [30]: 89.7%
cell viability [31]: 95%
cell viability [32]: 90.3%
cell viability [33]: 92%

COC1=CC2=NC=CC(=C2C=C1)OC3=CN=C(NC(=O)C/4=C(C)/N(CC(C)(C)O)N(C4=O)C5=CC=CC=C5)C=C3
cell viability [1]: 87.7%
cell viability [2]: 92.6%
cell viability [3]: 87.6%
cell viability [4]: 91.3%
cell viability [5]: 97.1%
cell viability [6]: 96.4%
cell viability [7]: 95%
cell viability [8]: 91.6%
cell viability [9]: 76.9%
cell viability [10]: 85.7%
cell viability [11]: 74.4%
cell viability [12]: 89.4%
cell viability [13]: 87.9%
cell viability [14]: 89.7%
cell viability [15]: 92.1%
cell viability [16]: 92.1%
cell viability [17]: 91.9%
cell viability [18]: 89.5%
cell viability [19]: 90.5%
cell viability [20]: 70.1%
cell viability [21]: 90%
cell viability [22]: 63.6%
cell viability [23]: 81.1%
cell viability [24]: 88.7%
cell viability [25]: 89.8%
cell viability [26]: 98.5%
cell viability [27]: 96.6%
cell viability [28]: 93.2%
cell viability [29]: 94.9%
cell viability [30]: 91.4%
cell viability [31]: 78.8%
cell viability [32]: 81.9%
cell viability [33]: 61.2%

C=CC(=O)Nc1cccc(Oc2nc(Nc3ccc(N4CCN(C)CC4)cc3)ncc2Cl)c1
cell viability [1]: 109%
cell viability [2]: 123%
cell viability [3]: 123%
cell viability [4]: 122%
cell viability [5]: 131%
cell viability [6]: 130%
cell viability [7]: 122%
cell viability [8]: 113%
cell viability [9]: 102%
cell viability [10]: 22.4%
cell viability [11]: 52.5%

COc1ccc(C[C@@H](C)[C@@H](C)Cc2ccc(OC)c(OC)c2)cc1OC
cell viability [1]: 92.6%
cell viability [2]: 105%
cell viability [3]: 102%
cell viability [4]: 110%
cell viability [5]: 99.4%
cell viability [6]: 102%
cell viability [7]: 97.7%
cell viability [8]: 83%
cell viability [9]: 6.15%
cell viability [10]: 5.92%
cell viability [11]: 2.61%
cell viability [12]: 97%
cell viability [13]: 103%
cell viability [14]: 98.3%
cell viability [15]: 110%
cell viability [16]: 111%
cell viability [17]: 99.7%
cell viability [18]: 92.4%
cell viability [19]: 81%
cell viability [20]: 4.82%
cell viability [21]: 4.04%
cell viability [22]: 2.42%
cell viability [23]: 95.4%
cell viability [24]: 102%
cell viability [25]: 105%
cell viability [26]: 107%
cell viability [27]: 104%
cell viability [28]: 90.6%
cell viability [29]: 93.4%
cell viability [30]: 81.9%
cell viability [31]: 6.68%
cell viability [32]: 4.98%
cell viability [33]: 2.21%

OC1=CC=C(C=C1)\C2=C\OC3=C(C=CC(=C3)O)C2=O
cell viability [1]: 112%
cell viability [2]: 107%
cell viability [3]: 105%
cell viability [4]: 97.2%
cell viability [5]: 110%
cell viability [6]: 104%
cell viability [7]: 102%
cell viability [8]: 99.2%
cell viability [9]: 92.7%
cell viability [10]: 102%
cell viability [11]: 98.1%
cell viability [12]: 98.3%
cell viability [13]: 90.4%
cell viability [14]: 103%
cell viability [15]: 99.1%
cell viability [16]: 100%
cell viability [17]: 87%
cell viability [18]: 90.9%
cell viability [19]: 89.5%
cell viability [20]: 92.9%
cell viability [21]: 86.9%
cell viability [22]: 89.7%
cell viability [23]: 100%
cell viability [24]: 96.3%
cell viability [25]: 95.4%
cell viability [26]: 99.9%
cell viability [27]: 97.3%
cell viability [28]: 96.7%
cell viability [29]: 95.8%
cell viability [30]: 98.1%
cell viability [31]: 93.1%
cell viability [32]: 90.3%
cell viability [33]: 88%

CCCCn1c(=O)n(Cc2ccccc2F)c(=O)c2nc(Cc3ccc(NC(C)=O)cc3)[nH]c21
cell viability [1]: 93.4%
cell viability [2]: 95.6%
cell viability [3]: 94.6%
cell viability [4]: 90.1%
cell viability [5]: 88.6%
cell viability [6]: 88.8%
cell viability [7]: 89.4%
cell viability [8]: 79.6%
cell viability [9]: 85.5%
cell viability [10]: 83.3%
cell viability [11]: 92.8%
cell viability [12]: 87.9%
cell viability [13]: 87.8%
cell viability [14]: 89.9%
cell viability [15]: 85%
cell viability [16]: 94.5%
cell viability [17]: 88.3%
cell viability [18]: 82.7%
cell viability [19]: 75.5%
cell viability [20]: 82.5%
cell viability [21]: 79.2%
cell viability [22]: 89.1%
cell viability [23]: 88.2%
cell viability [24]: 82.1%
cell viability [25]: 87.2%
cell viability [26]: 91.3%
cell viability [27]: 90.5%
cell viability [28]: 78.6%
cell viability [29]: 86.3%
cell viability [30]: 90.7%
cell viability [31]: 85.9%
cell viability [32]: 79.7%
cell viability [33]: 83%
